From paper PMC10313808, “Lipoxygenase inhibitory synthetic derivatives of methyl gallate regulate gene expressions of COX-2 and cytokines to reduce animal model arthritis” (Scientific Reports, 2023) come the findings set out here.

For data set [1], the system named is FCA-induced arthritis. The note with it: for ALP / SGOT / SGPT: FCA rats, serum; for liver damage: rat, in vivo. On the procedure: Chronic inflammation induced by Freund's Complete Adjuvant contains a suspension of heat-killed Mycobacterium tuberculosis in the vehicle (Chondrex, Labex Corporation). 100 μL of FCA (10 mg/mL) was injected intradermally to the left-hand paw of SD rats[42]. […] Induction of inflammation became chronic by 9–12 days and then rats were divided into 7 groups having 6 rats in each group. Everything possible was done to minimize the suffering of experimental animals. Minimum number of rats only were drafted to generate reliable data. 42 rats were randomly allocated into seven groups (6 × 7).
Group I (n = 6) served as normal rats that received an equal volume of vehicle control. Group II (n = 6) was arthritic model control treated with vehicle only. Group III (n = 6) was arthritic control which received the diclofenac (10 mg.kg^–1). Groups IV (n = 6), V (n = 6), VI (n = 6) and VII (n = 6) were treated with a low and high dose of methyl gallate (20 mg.kg^–1, 40 mg.kg^–1) and MGSD 1 (1 mg.kg^–1, 10 mg.kg^–1). The drugs were orally administered through oral gavage daily in PBS vehicle for 28 days.
Blood was drawn from jugular vein[43] and collected in heparinized tubes and used for further analysis. By using Horiba 5-part hematology analyzer the blood parameters like RBC, WBC, neutrophil and hemoglobin were analyzed. Serum parameters were analyzed using Stat Fax autoanalyzer. Serum glutamic pyruvic transaminase (SGPT), serum glutamic oxaloacetic transaminase (SGOT) and alkaline phosphatase (ALP) were determined using standard diagnostic kits (Proton, Accurex).

Data set [2] deals with T1, Lipoxidase from Glycine max (15- LOX) (Glycine max, UniProt P08170).
T1 construct: purchased Sigma (Sigma-Aldrich, UK)
T1 sequence (P08170 1-839): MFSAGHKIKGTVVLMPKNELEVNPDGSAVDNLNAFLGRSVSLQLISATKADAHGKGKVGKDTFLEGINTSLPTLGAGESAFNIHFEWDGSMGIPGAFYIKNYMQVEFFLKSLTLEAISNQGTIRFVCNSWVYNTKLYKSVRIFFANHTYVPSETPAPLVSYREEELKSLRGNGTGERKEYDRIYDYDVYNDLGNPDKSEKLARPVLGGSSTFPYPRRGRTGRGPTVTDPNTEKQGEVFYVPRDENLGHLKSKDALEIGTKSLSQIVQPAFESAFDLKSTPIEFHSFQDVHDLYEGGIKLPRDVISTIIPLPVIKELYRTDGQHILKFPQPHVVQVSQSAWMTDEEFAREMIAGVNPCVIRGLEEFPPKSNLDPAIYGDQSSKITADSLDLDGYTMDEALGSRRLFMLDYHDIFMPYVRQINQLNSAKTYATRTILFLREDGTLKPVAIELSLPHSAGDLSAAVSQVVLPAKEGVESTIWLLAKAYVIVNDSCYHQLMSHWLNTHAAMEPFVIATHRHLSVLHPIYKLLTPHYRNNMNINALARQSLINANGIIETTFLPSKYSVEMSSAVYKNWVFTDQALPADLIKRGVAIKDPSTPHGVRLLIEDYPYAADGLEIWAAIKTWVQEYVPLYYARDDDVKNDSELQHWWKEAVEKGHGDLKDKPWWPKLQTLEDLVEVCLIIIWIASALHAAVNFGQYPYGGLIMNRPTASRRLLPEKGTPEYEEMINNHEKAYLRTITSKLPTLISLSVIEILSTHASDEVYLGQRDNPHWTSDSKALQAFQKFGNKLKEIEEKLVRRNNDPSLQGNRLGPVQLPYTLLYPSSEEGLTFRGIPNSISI
Kind of data set: In-vitro LOX enzyme inhibition assay (spectrophotometric, 234 nm). The format is biochemical. On the procedure:
The LOX inhibition assays were performed with MGSDs. The inhibitory activity was measured by a modified spectrophotometric method[16],[39]. The plant LOX pathway is in many respects equivalent to the ‘arachidonic acid cascades’ in animals. For this reason, the in vitro inhibition of LOX constitutes a good model for the screening of compounds with anti-inflammatory potential[40],[41]. LOX (Lipoxidase from Glycine max (15- LOX); EC 1.13.11.12) type I-B (Soybean), and linoleic acid were purchased from Sigma (Sigma-Aldrich, UK) and used without further purification. Enzyme solution of 1.03 µM was prepared in 0.2 mM borate buffer, pH 8.5. The substrate, linoleic acid solution of 0.3 mM was also prepared in the borate buffer at the same pH. […] The final concentration of MGSDs used for the analysis was 20 µM. The assay mixture was made of 50 µL of LOX, 50 µL of the test solution and 360 µL of the substrate. The final volume was made up to 2 mL with corresponding borate buffer quantity. The activity of LOX was measured on the formation of […], which was monitored at 234 nm on spectrophotometer, (HITACHI U 2900, Japan). The same procedure was repeated with triplicate for the confirmation of LOX inhibitory activity[16],[39].

Data set [3] has as its system COX-2. Kind of data set: RT-PCR gene expression in hind paw tissue, COX-2. The format is in vivo, Sprague–Dawley (SD) rats. The note with it: normalized to GAPDH, vs arthritic control. On the procedure:
This study aimed to gain insight into the mechanism by which methyl gallate and its derivative influence the chronic inflammatory condition in the rat model. In the present study, the inflammatory pathway genes were identified, and their relative expression was quantified (COX-2 and TNF α). RNA was isolated from the hind paw tissue of rats and its concentration was analyzed through Qubit fluorometer. RNA was isolated by Trizol method and agarose gel electrophoresis performed. After the isolation protocol, complementary DNA was synthesized and followed the quantitative PCR with standard conditions. Primers of the targets were designed in Primer3Plus and primer validation was carried out. PCR annealing temperatures were standardized to amplify the specific genes. All the primer pairs were highly specific and resolved into single bands corresponding to amplification products of expected size on 2% agarose gel electrophoresis. Primer specificity was further confirmed by a single distinct peak on the melt curve. The specificity of primer pairs ensures the sequence quality of respective gene templates.
The relative expression of inflammatory genes was identified through quantitative RT-PCR. […] The concentration of RNA isolated was measured in the Qubit fluorometer with the RNA HS assay kit. cDNA was synthesized by reverse transcription using total RNA (2 μg) as a template. […]

A word on the inhibition: it is the percentage by which the read-out fell short of the control. Low readings indicate a weak effect, high ones a strong effect.

Read-outs that look alike come from different tables or passages of the source.

For the molecule `O=C(O)COc1cc(C(=O)O)cc(OCC(=O)O)c1OCC(=O)O` [MGSD 1, 2,2′,2″-((5-carboxybenzene-1,2,3-triyl)tris(oxy)) tri acetic acid], in data set [1] (1 mg.kg^−1 oral), the ALP was determined as 435 ± 72.16, the SGOT was 162 ± 7.57 IU/L and the SGPT worked out at 85 ± 2.60 IU/L. Besides, in data set [1] (10 mg.kg^−1 oral), the ALP is on record as 309 ± 54.42, the SGOT turned out to be 179 ± 3.52 IU/L and the SGPT is recorded as 82 ± 1.73 IU/L. Moreover, the liver damage result in data set [1] is given as “did not show any liver damage”. For the same molecule, the inhibition at 20 µM in data set [2] (20 μM compound) was determined as 70 ± 3.45%. The COX-2 gene expression entry in data set [3] is “significant down regulation of COX-2”.

In data set [1] (20 mg.kg^−1 oral), `COC(=O)c1cc(O)c(O)c(O)c1` [Methyl gallate] gave an SGOT of 243 ± 13.28 IU/L and an SGPT of 94 ± 3.17 IU/L. Also, in data set [1] (40 mg.kg^−1 oral), the SGOT was found to be 183 ± 6.38 IU/L and the SGPT was 102 ± 2.18 IU/L. Further, the liver damage entry in data set [1] is listed as “did not show any liver damage”. In data set [2] (0.2 mM compound), this molecule had an inhibition at 200 µM of 61 ± 1.35%. Further, in data set [3], the COX-2 gene expression result was “significant down regulation of COX-2”.
